# Earlier results as cited in patent publication USRE41148E1, “Oral pulsed dose drug delivery system” (Shire Laboratories, Inc., priority 1998, dated 2010).
# Columns and labels:
# [1] = pulsatile capsule, release after nominal 5-hr period, majority of subjects
# [2] = wax-surfactant coating level 60%
SMILES,drug observed in the blood [1],lag time of drug release [2],time required for complete release after the lag time [2]
C[C@H](CS)C(=O)N1CCC[C@H]1C(=O)O [captopril],no measurable amounts,–,–
Cn1c(=O)c2[nH]cnc2n(C)c1=O [theophylline],–,two-hour,three hours
